Assays:
SAH rats [1] = assay: Short-term neurological function of SAH rats (Garcia score, beam balance test, bleeding score); type: in vivo, rat; details: SAH model; for Beam balance score / Garcia score: 24 hours after modeling
Procedure: Experimental grouping: At 2 h after endovascular perforation or collagenase VII injection, Zea Longa score was used to evaluate the neurological function of rats. Successful model rats were randomly divided into groups for administration.
All groups were administrated through the tail vein injection except for group N administrated intraperitoneally.
The rats were fasted for 12 hours before operation, and were anesthetized with 4% isoflurane, and kept anesthetized with 2% isoflurane. The animals were fixed in the supine position with the body temperature maintained at about 37° C. A traditional skin incision of the neck was performed along the midline. The muscle and fascia were separated along the medial margin of the sternocleidomastoid muscle to expose the right side, then the common carotid artery (CCA), external carotid artery (ECA) and internal carotid artery (ICA) were bluntly separated with disposal lines placed at CCA proximal end, ICA and ECA for use. The CCA proximal end and the ECA were ligated, and the ICA was temporarily clamped with an arterial clip, and then a small hole was poked with a needle at about 4 mm from the bifurcation at the CCA. A nylon suture was introduced into the CCA from the hole and advanced through the ICA after releasing the arterial clip, and the suture was inserted intracranially. […] The suture moved forward for roughly 2 mm to perforate the artery followed by instant withdraw, and then the suture was completely removed and the ICA was ligated. Finally, the incision was cleaned with normal saline and sutured. The sham group conducted the same procedure as the model group except for the perforation. After awakening from anesthesia, the animals were raised normally.
The SAH severity was grading after rat's euthanasia, i.e., completing the evaluation of short-term neurological function. The score was determined by the amount of subarachnoid hemorrhage on the surface of basal cistern and brain tissue which was divided into six parts by the Willis ring composed of basilar artery, anterior cerebral artery, internal carotid artery, posterior cerebral artery and posterior communicating artery. Each part was graded from 0 to 3 points according to the amount of subarachnoid blood clots, i.e., 0 points: no subarachnoid blood; 1 point: a small amount of subarachnoid blood; 2 points: moderate amount of blood clots with recognizable arteries; 3 points: blood clots cover all arteries in the area. All 6 part scores were added up for a total of 18 points. According to the final score, SAH hemorrhage severity could be divided into mild subarachnoid hemorrhage (0 to 7 points), moderate subarachnoid hemorrhage (8 to 12 points), and severe subarachnoid hemorrhage (13 to 18 points). The moderate to severe SAH models were selected for statistical analysis (score≥8 points).
According to Zea Longa's neurological function score, the rats were scored 2 hours after the operation when they were awake from anesthesia. Successful model rats with a score of 1 to 3 points were enrolled in the group: • 0 points: no neurological deficits with normal activity; • 1 point: inability to fully extend the contralateral forepaw; • 2 points: the animal appears to turn in circles when crawling; • 3 points: the animal tends to lean to the hemiplegic side; • 4 points: the animal cannot walk spontaneously or loses consciousness. 1.4 Assessment of Short-Term Neurological Function
The neurological function of rats was comprehensively evaluated with Garcia score and beam balance test 24 hours after modeling. The criteria of Garcia score are shown in Table 1, which evaluates the movement, sensation, climbing and limb symmetry of the rats with the score range of 3 to 18 points. The lower the score, the more severe the neurological injury. The criteria of the beam balance test are shown in Table 2, which evaluated the proprioception and body coordination of rats with the score range of 0 to 6 points. […]

SAH rats [2] = assay: Glutamate and GABA content in brain tissue, SAH rats; type: in vivo, rat; details: 12 to 24 hours after operation, group M
Procedure: The rats were deeply anesthetized, and decapitated to collect the brain at 12-24 hours after modeling. Then about 60 to 120 mg of brain cortex on the hemorrhagic side were weighed, homogenized with 10 times the volume of ice-cold centrifuge buffer for biochemical detection, homogenized for 10 min in an ice bath, and centrifuged at 4° C. for 30 minutes (14,000 rpm/min). The contents of glutamate and GABA in the supernatant were detected according to the instructions of glutamate content detection kit and rat GABA Elisa kit.

PC12 cells = assay: Oxyhemoglobin-damaged PC12 cells, MTT; type: cell-based; details: α-asarone emulsion 1, 5, 10, 25, 50 μM pre-incubated 2 hours, 6 μM oxyhemoglobin 24 hours
Procedure: PC12 cells in the logarithmic phase of growth were seeded in a 96-well plate (1×10^4 cells/100 μL/well) with the marginal wells filled with sterile PBS, and cultured with complete culture medium at 37° C. with 5% CO2 for 24 hours until the cells completely adhered to the wall. The supernatant was discarded followed by oxyhemoglobin incubation at 37° C. with 5% CO2 for 24 hours with final concentrations of 0 μM, 4 μM, 6 μM, 8 μM and 10 μM, respectively. Subsequently, 10 μL MTT (5 mg/mL) was added into each well and incubated at 37° C. with 5% CO2 for 4 hours. Then, the supernatant was discarded, the formazan was dissolved with 100 μL DMSO, and the optical density (OD) was gauged at 570 nm by a microplate reader after incubation at 37° C. for 15 minutes (500 r/min) to calculate the cell viability. According to the formula “fold of cell abnormal proliferation=[(average absorbance value of the experimental group−average absorbance value of zero-adjusting well)/(average absorbance value of the control group−average absorbance value of zero-adjusting well)”, 6 μM oxyhemoglobin was screened out for following in vitro pharmacodynamic experiment since it produced a maximum of 1.5-fold abnormal cell proliferation compared to the control group. […]

[3] = group H, α-asarone emulsion injection 30 mg/kg tail vein
[4] = group L, α-asarone emulsion injection 7.5 mg/kg tail vein
[5] = group M, α-asarone emulsion injection 15 mg/kg tail vein

With `C/C=C/c1cc(OC)c(OC)cc1OC` [α-asarone, trans-2,4,5-trimethoxy-1-propenylbenzene] the Beam balance score (SAH rats [1]; [3]) was 3.22, the Garcia score (SAH rats [1]; [3]) was 11.79 and the Beam balance score (SAH rats [1]; [4]) was 3.30. It also gave a Garcia score (SAH rats [1]; [4]) of 10.82, a Beam balance score (SAH rats [1]; [5]) of 2.70 and a Garcia score (SAH rats [1]; [5]) of 12.29. The “curative effect compared with nimodipine (group N) and vinpocetine (group V)” value (SAH rats [1]; group M, 15 mg/kg) was “better”, the “GABA content in the hemorrhagic brain tissue” value (SAH rats [2]) was “significantly reduce” and the “glutamate content in the hemorrhagic brain tissue” value (SAH rats [2]) was “significantly reduce”. The “abnormal increase of cell vitality caused by oxyhemoglobin” value (PC12 cells) was “significantly reduced”.
